# Experiments:
# [1] = tested on: impregnated sponge granuloma in the rat; experiment: Impregnated sponge granuloma test in the rat; type: in vivo, AHH/R female rats (PVG derived)
# Method: AHH/R female rats (PVG derived) with an initial weight range of 120-140 g. were used.
# Sponge preparation. Pellets (6.5 mm diameter) were punched from cellulose sponge cloth ("Wettex") and 0.1 ml. of a suspension containing 0.5 mg.ml^-1 of heat killed M. tuberculosis (human strains C, DT and PN) in sterile saline was applied to each pellet. The pellets were dried, weighed and autoclaved.
# Rats were randomly divided into groups of five and daily dosing with test compounds was commenced. After the fifth dose the rats were anaesthetised with Sagatal (45 mg.kg^-1 i.p.) the backs were shaved and two pellets were implanted subcutaneously (one each side) into each rat through a small dorsal midline incision. The incision was closed and the rats allowed to recover from the anaesthetic.
# Seven days after implantation the rats were killed and the pellets were removed, dissected free of extraneous tissue and weighed. Each pellet was then placed in a 4 ml aliquot of distilled water, chopped with fine scissors and sonicated. After centrifugation the Na^+ and K^+ content of the supernatant was determined by flame photometry. In addition the adrenal and thumus glands from each rat were dissected out and weighed and the lower hind limbs were removed for measurement of tibial bone breaking strain. Body weights were also recorded throughout the test period.
# The mean ± SE for each of the parameters was calculated and differences from the control values were determined by Student's t test (2-tailed). Percentage reductions of granuloma weight, Na^+ and K^+ content and percentage changes of adrenal and thymus, weight and tibial breaking strain were determined.
# [2] = tested on: adjuvant arthritis in the rat; experiment: Developing adjuvant arthritis in the rat; type: in vivo, AHH/R Female rats (PVG derived); conditions: for Joint Mobility (% INC) / Lesion Score (% RDN): day 15; for % reduction of paw swelling, Primary (right): days 0-4; for % reduction of paw swelling, Secondary (left) / % reduction of paw swelling, Secondary (right): days 8-15
# Method: AHH/R Female rats (PVG derived with an initial weight range of 110 to 140 g. were used.
# Adjuvant for injection. An homogenized suspension of heat killed M tuberculosis (Human strains C, DT and PN), 5 mg.Ml^-1 in liquid paraffin was prepared.
# Rats were randomly split into groups of five and adjuvant arthritis was induced by the sub-plantar injection of 0.1 ml of adjuvant suspension into the right hind paw of each rat. Test compounds were administered by intubation each morning commencing the day of adjuvant injection. Two groups of control rats were dosed with the vehicle as was a group of three normal rats included for comparative purposes. Dosing was carried out daily until the end of the test on day 15 except for the first weekend (days 5 & 6). Treatment groups are shown in Table III and include etretinate as standard retinoid.
# Measurements of right hind paw volume were made initially and on days 2 and 4 after and adjufant injection (primary phase). Right and left hind paw volume were then measured, on day 8 and every two or three days until the end of the experiment on day 15 (secondary phase). At this time the mobility of each ankle joint and the incidence and severity of secondary lesions on nose, ears, forepaws, left hind paw and tail were also assessed in terms of degrees of flexion possible and by using an arbitrary scoring system, respectively.
# The time course curves for the injected paws were integrated from days 0 to 4 to reflect primary swelling and from days 8 to 15 (secondary swelling). The secondary swelling in the non-injected paw was integrated similarly from days 8 to 15. Calculations were carried out using a specific computer program which computed mean ± se for each integrated area. The significance of differences from controls was determined by Student's t test (2 tailed) and percentage reductions from control areas were calculated. Percentage improvements in joint mobility and percentage reductions in lesion score were also determined. In the latter case the Wilcoxon rank sum test (2 tailed) was used to express the difference from the control score using raw data. Mean body weight change in each group was recorded.
smiles,measurement,setting,value
"CCCCCCCCCOc1ccccc1/C=C/C(C)=C/C=C/C(C)=C/C(=O)O [Compound A, All(E)-9-[2(nonyloxy)phenyl]-3,7-dimethyl-2,4,6,8-nonatetraenoic acid]",% reduction of granuloma K+,[1]; 15 mg.kg^-1 p.o.,-6.9%
same,% reduction of granuloma Na+,[1]; 15 mg.kg^-1 p.o.,14.5%
same,% reduction of granuloma Wet weight,[1]; 15 mg.kg^-1 p.o.,15.1%
same,% reduction of granuloma K+,[1]; 45 mg.kg^-1 p.o.,0.8%
same,% reduction of granuloma Na+,[1]; 45 mg.kg^-1 p.o.,11%
same,% reduction of granuloma Wet weight,[1]; 45 mg.kg^-1 p.o.,10.8%
same,Joint Mobility (% INC),[2]; 15 mg.kg^-1 p.o.,66%
same,Lesion Score (% RDN),[2]; 15 mg.kg^-1 p.o.,72%
same,"% reduction of paw swelling, Primary (right)",[2]; 15 mg.kg^-1 p.o.,-6%
same,"% reduction of paw swelling, Secondary (left)",[2]; 15 mg.kg^-1 p.o.,94%
same,"% reduction of paw swelling, Secondary (right)",[2]; 15 mg.kg^-1 p.o.,30%
same,Joint Mobility (% INC),[2]; 45 mg.kg^-1 p.o.,66%
same,Lesion Score (% RDN),[2]; 45 mg.kg^-1 p.o.,65%
same,"% reduction of paw swelling, Primary (right)",[2]; 45 mg.kg^-1 p.o.,16%
same,"% reduction of paw swelling, Secondary (left)",[2]; 45 mg.kg^-1 p.o.,75%
same,"% reduction of paw swelling, Secondary (right)",[2]; 45 mg.kg^-1 p.o.,51%
